Laboratory results published in ChEMBL document CHEMBL1201862, “PubChem BioAssay data set” (2004).
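Interpolation was linear, between the two tested concentrations surrounding the appropriate level; five concentrations were tested over 48 hours in 96-well plates. Abbreviation: GI50, concentration required for 50% inhibition of growth.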 Calls of active or inactive are those of the source. No stated cut-off is given here; in the data, active = GI50 up to about 1.1 µM and inactive = higher.

Experiments:
Assay in all cases: DTP human tumour cell line panel, 48 h
ACHN = system: ACHN
K562 = system: K562
MOLT-4 = system: MOLT-4
TK-10 = system: TK-10
SK-OV-3 = system: SK-OV-3
HOP-62 = system: HOP-62
SNB-75 = system: SNB-75
U-251 = system: U-251
SF-539 = system: SF-539
A498 = system: A498
RXF 393 = system: RXF 393
CCRF-CEM = system: CCRF-CEM
SK-MEL-5 = system: SK-MEL-5
SN12C = system: SN12C
HCT-15 = system: HCT-15
IGROV-1 = system: IGROV-1
Malme-3M = system: Malme-3M
HCT-116 = system: HCT-116
KM12 = system: KM12
NCI-H226 = system: NCI-H226

| Compound | GI50 (ACHN) | GI50 (K562) | GI50 (MOLT-4) | GI50 (TK-10) | GI50 (SK-OV-3) | GI50 (HOP-62) | GI50 (SNB-75) | GI50 (U-251) | GI50 (SF-539) | GI50 (A498) | GI50 (RXF 393) | GI50 (CCRF-CEM) | GI50 (SK-MEL-5) | GI50 (SN12C) | GI50 (HCT-15) [µM] | GI50 (IGROV-1) | GI50 (Malme-3M) | GI50 (HCT-116) | GI50 (KM12) | GI50 (NCI-H226) |
| --- | --- | --- | --- | --- | --- | --- | --- | --- | --- | --- | --- | --- | --- | --- | --- | --- | --- | --- | --- | --- |
| O=C(COC(=O)c1ccccc1)c1ccc(Br)cc1 | 19.9 µM (inactive) | 4.4 µM (inactive) | 3.29 µM (inactive) | 2.58 µM (inactive) | 19.1 µM (inactive) | 18.5 µM (inactive) | 16.4 µM (inactive) | 11 µM (inactive) | 15.1 µM (inactive) | 15.8 µM (inactive) | 2.75 µM (inactive) | 4.04 µM (inactive) | 14.5 µM (inactive) | 10.4 µM (inactive) | 3.35 | 1 µM (active) | 12.2 µM (inactive) | 8.95 µM (inactive) | 15.7 µM (inactive) |  |
| N#Cc1c(NCCc2ccc(F)cc2)c2ccccc2n2c1nc1ccccc12 | 9.18 µM (inactive) | > 100 µM (inactive) | > 100 µM (inactive) | 12.5 µM (inactive) | 20.1 µM (inactive) | 5.27 µM (inactive) | 6.32 µM (inactive) | 11.3 µM (inactive) | 9.27 µM (inactive) | 21 µM (inactive) | 10.7 µM (inactive) | > 100 µM (inactive) |  | 15.1 µM (inactive) | 28.4 | 13.4 µM (inactive) |  | 19 µM (inactive) | 23.2 µM (inactive) | 16.7 µM (inactive) |
| COC(=O)C1=C(O)CCCC(C2CCCCC(=O)C2C(=O)OC)=C1 (stereo unspecified) | 37.2 µM (inactive) | 64.3 µM (inactive) | 31.3 µM (inactive) | > 100 µM (inactive) | 76.7 µM (inactive) |  | 28.7 µM (inactive) | 29 µM (inactive) | 24.5 µM (inactive) | 18.4 µM (inactive) | 90.2 µM (inactive) | 20.8 µM (inactive) | 62.4 µM (inactive) | 38.2 µM (inactive) | 87.5 | 36.8 µM (inactive) |  | 36.1 µM (inactive) | 94.6 µM (inactive) | 27.9 µM (inactive) |
| COc1ccc(S(=O)(=O)c2nnc(S(=O)(=O)Cc3ccccc3)s2)cc1 | 12.7 µM (inactive) | 5.92 µM (inactive) | 2.58 µM (inactive) | 15.7 µM (inactive) | 22.5 µM (inactive) | 30.3 µM (inactive) | 16.4 µM (inactive) | 19.5 µM (inactive) | 12 µM (inactive) | 18.6 µM (inactive) | 16.2 µM (inactive) |  | 19.5 µM (inactive) | 23.7 µM (inactive) | 25.7 |  |  | 20.4 µM (inactive) | 29.6 µM (inactive) |  |
| Oc1ccc(Cl)cc1C1=NC(/N=C\c2ccccc2)=NC(c2ccccc2)C1 (stereo unspecified) |  | > 100 µM (inactive) | > 100 µM (inactive) | > 100 µM (inactive) | 16.3 µM (inactive) | 25.7 µM (inactive) | 17.5 µM (inactive) | 30.1 µM (inactive) | 22.8 µM (inactive) | 73.6 µM (inactive) | 66.1 µM (inactive) | > 100 µM (inactive) | 14.1 µM (inactive) | 14.7 µM (inactive) |  | 7.01 µM (inactive) |  | 5.94 µM (inactive) | 10.5 µM (inactive) | 37.8 µM (inactive) |
| CC1=NN(C(=O)CSc2nc3ccc(I)cc3c(=O)n2Cc2ccccc2)C(=O)C1 | 28.8 µM (inactive) | 23.8 µM (inactive) | 24.4 µM (inactive) | 47.6 µM (inactive) | 29.1 µM (inactive) | 39.6 µM (inactive) | 35.3 µM (inactive) | 25.4 µM (inactive) | 35.8 µM (inactive) | 22.4 µM (inactive) | 25.9 µM (inactive) | 27.9 µM (inactive) | 21.7 µM (inactive) | 29.3 µM (inactive) | 21.5 | 28.8 µM (inactive) |  | 29.9 µM (inactive) | 28.3 µM (inactive) | 43.9 µM (inactive) |
| COC(=O)CC1(O)C(C=C(C)C)C(C(=O)OC)C(=O)C(C(=O)OC)C1C(=O)OC (stereo unspecified) | > 100 µM (inactive) | > 100 µM (inactive) | > 100 µM (inactive) | > 100 µM (inactive) | > 100 µM (inactive) | > 100 µM (inactive) |  | > 100 µM (inactive) | > 100 µM (inactive) | > 100 µM (inactive) | > 100 µM (inactive) | > 100 µM (inactive) | > 100 µM (inactive) | > 100 µM (inactive) | > 100 | > 100 µM (inactive) | > 100 µM (inactive) | > 100 µM (inactive) | > 100 µM (inactive) | > 100 µM (inactive) |
| O=C(CSSCC(=O)OCCS(=O)(=O)Nc1ccc(Br)cc1)OCCS(=O)(=O)Nc1ccc(Br)cc1 | 18 µM (inactive) | 10.4 µM (inactive) | 3.11 µM (inactive) | 20.7 µM (inactive) | 18.9 µM (inactive) | > 10 µM (inactive) | 28.2 µM (inactive) | 21.7 µM (inactive) | 10.2 µM (inactive) | 11.8 µM (inactive) | 3.23 µM (inactive) | 7.66 µM (inactive) | 11.8 µM (inactive) | 18.7 µM (inactive) | 14.5 | 17.3 µM (inactive) | 3.8 µM (inactive) |  | 13.3 µM (inactive) |  |
| NC(=O)C12C3C4C1C1C2C3C41C(N)=O (stereo unspecified) | > 100 µM (inactive) | > 100 µM (inactive) | > 100 µM (inactive) | > 100 µM (inactive) | > 100 µM (inactive) | > 100 µM (inactive) | > 100 µM (inactive) | > 100 µM (inactive) | > 100 µM (inactive) | > 100 µM (inactive) | > 100 µM (inactive) | > 100 µM (inactive) | > 100 µM (inactive) | > 100 µM (inactive) | > 100 | > 100 µM (inactive) |  | > 100 µM (inactive) | > 100 µM (inactive) | > 100 µM (inactive) |
| Fc1ccc(C2SCc3nc4ccccc4n32)cc1F (stereo unspecified) | 30 µM (inactive) | 24.2 µM (inactive) | 21.4 µM (inactive) | 26 µM (inactive) | 46.5 µM (inactive) | 35.8 µM (inactive) | 20.1 µM (inactive) | 48.2 µM (inactive) | 34 µM (inactive) | 36.2 µM (inactive) | 24.2 µM (inactive) | 34.1 µM (inactive) | 16.8 µM (inactive) | 41.7 µM (inactive) | 35.7 | 33.5 µM (inactive) | 25.9 µM (inactive) | 26.8 µM (inactive) | 27.6 µM (inactive) |  |
| Cc1cc(-c2nc3c(F)cccc3s2)ccc1N | 30 µM (inactive) | 40.3 µM (inactive) | 10.7 µM (inactive) |  | > 100 µM (inactive) | 62.5 µM (inactive) | 52.1 µM (inactive) | 69.2 µM (inactive) |  | 8.2 µM (inactive) | 41.7 µM (inactive) | 3.94 µM (inactive) | 62.2 µM (inactive) | 28.2 µM (inactive) | 84.9 |  | 28.8 µM (inactive) | 85.1 µM (inactive) | 38.9 µM (inactive) |  |
| O=C1c2ccc(O)c(O)c2C(=O)c2c(O)ccc(O)c21 [QUINALIZARIN] | 23 µM (inactive) | 26.5 µM (inactive) | 23.1 µM (inactive) | 33.8 µM (inactive) | 29.7 µM (inactive) | 26.8 µM (inactive) | > 10 µM (inactive) | 34.2 µM (inactive) | 21.4 µM (inactive) | 26.3 µM (inactive) | 26.1 µM (inactive) | 20.2 µM (inactive) |  | 24 µM (inactive) | 25.7 | 38.4 µM (inactive) |  | 20.6 µM (inactive) | 30.9 µM (inactive) | 22 µM (inactive) |
